Experimental data published in the supplement of paper PMC10307832.

Columns and labels:
Test in all cases: relative viability (nuclei count vs DMSO), 5 days (fraction); higher = more cells survive
Imatinib + Navitoclax = compound: Cc1ccc(NC(=O)c2ccc(CN3CCN(C)CC3)cc2)cc1Nc1nccc(-c2cccnc2)n1 [Imatinib] + CC1(C)CCC(c2ccc(Cl)cc2)=C(CN2CCN(c3ccc(C(=O)NS(=O)(=O)c4ccc(N[C@H](CCN5CCOCC5)CSc5ccccc5)c(S(=O)(=O)C(F)(F)F)c4)cc3)CC2)C1 [Navitoclax] (partner 0.5 µM)
Procedure, shortened: (§1)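 Five library-drug doses in √10 steps were combined with a fixed anchor-drug dose, or a single drug was given alone, by pin tool to lung cancer cell lines in 1536-well plates the day after seeding. Nuclei were stained and counted after 5 days. Relative viability is the nuclei count in treated wells over that in vehicle wells, taken as the median of duplicate plates.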

Imatinib + Lapatinib = compound: Cc1ccc(NC(=O)c2ccc(CN3CCN(C)CC3)cc2)cc1Nc1nccc(-c2cccnc2)n1 [Imatinib] + CS(=O)(=O)CCNCc1ccc(-c2ccc3ncnc(Nc4ccc(OCc5cccc(F)c5)c(Cl)c4)c3c2)o1 [Lapatinib] (partner 2 µM)
Procedure, shortened: as §1

Imatinib + Luminespib = compound: Cc1ccc(NC(=O)c2ccc(CN3CCN(C)CC3)cc2)cc1Nc1nccc(-c2cccnc2)n1 [Imatinib] + CCNC(=O)c1noc(-c2cc(C(C)C)c(O)cc2O)c1-c1ccc(CN2CCOCC2)cc1 [Luminespib] (partner 0.01 µM)
Procedure, shortened: as §1

Imatinib + Alpelisib = compound: Cc1ccc(NC(=O)c2ccc(CN3CCN(C)CC3)cc2)cc1Nc1nccc(-c2cccnc2)n1 [Imatinib] + Cc1nc(NC(=O)N2CCC[C@H]2C(N)=O)sc1-c1ccnc(C(C)(C)C(F)(F)F)c1 [Alpelisib] (partner 2 µM)
Procedure, shortened: as §1

| Cell Line | relative viability (Imatinib + Navitoclax; first compound 0.02 µM) | relative viability (Imatinib + Navitoclax; first compound 0.06325 µM) | relative viability (Imatinib + Navitoclax; first compound 0.2 µM) | relative viability (Imatinib + Navitoclax; first compound 0.6325 µM) | relative viability (Imatinib + Navitoclax; first compound 2 µM) | relative viability (Imatinib + Lapatinib; first compound 0.02 µM) | relative viability (Imatinib + Lapatinib; first compound 0.06325 µM) | relative viability (Imatinib + Lapatinib; first compound 0.2 µM) | relative viability (Imatinib + Lapatinib; first compound 0.6325 µM) | relative viability (Imatinib + Lapatinib; first compound 2 µM) | relative viability (Imatinib + Luminespib; first compound 0.02 µM) | relative viability (Imatinib + Luminespib; first compound 0.06325 µM) | relative viability (Imatinib + Luminespib; first compound 0.2 µM) | relative viability (Imatinib + Luminespib; first compound 0.6325 µM) | relative viability (Imatinib + Luminespib; first compound 2 µM) | relative viability (Imatinib + Alpelisib; first compound 0.02 µM) | relative viability (Imatinib + Alpelisib; first compound 0.06325 µM) | relative viability (Imatinib + Alpelisib; first compound 0.2 µM) | relative viability (Imatinib + Alpelisib; first compound 0.6325 µM) | relative viability (Imatinib + Alpelisib; first compound 2 µM) |
| --- | --- | --- | --- | --- | --- | --- | --- | --- | --- | --- | --- | --- | --- | --- | --- | --- | --- | --- | --- | --- |
| LC-2-ad | 0.481 | 0.361 | 0.514 | 0.707 | 0.468 | 0.933 | 0.886 | 0.884 | 1.02 | 0.935 | 1.23 | 0.744 | 0.935 | 1 | 1.07 | 0.965 | 0.967 | 0.913 | 0.819 | 0.817 |
| LCLC-97TM1 | – | – | 0.605 | 0.554 | 0.399 | – | – | 0.958 | 0.878 | 0.734 | 0.89 | – | 0.864 | 0.889 | 0.813 | – | – | 0.236 | 0.231 | 0.266 |
| LK-2 | 0.975 | 0.685 | 0.848 | – | 0.84 | 1.02 | 0.625 | 1.11 | 0.486 | 0.967 | 0.168 | 0.174 | 0.168 | 0.196 | 0.199 | 1.33 | – | 1.23 | 1.18 | 1.19 |
| LOU-NH91 | 0.76 | – | 0.654 | 0.569 | 0.613 | 0.793 | 0.775 | 0.792 | 0.765 | 0.766 | 0.319 | 0.35 | 0.361 | 0.347 | 0.303 | 0.77 | 0.722 | 0.729 | 0.68 | 0.674 |
| LU99A | 0.905 | 0.788 | 0.807 | 1.08 | 0.855 | 1.14 | 1.08 | 0.986 | 0.99 | 1.18 | 0.276 | 0.247 | 0.227 | 0.219 | 0.245 | 0.575 | 0.604 | 0.599 | 0.523 | 0.514 |
| LXF-289 | 0.98 | 0.944 | 1.08 | 0.907 | 0.924 | 0.974 | 0.999 | 0.96 | 0.905 | 0.873 | 0.805 | 0.5 | 0.615 | 0.566 | 0.672 | 1.16 | 1.06 | 1.15 | 0.967 | 1.02 |
| NCI-H23 | 1.04 | 0.916 | 1.1 | 0.738 | 0.87 | 1.2 | 0.959 | 1.11 | – | 1.13 | 0.248 | 0.225 | 0.221 | 0.185 | 0.189 | 0.751 | – | 0.866 | 0.731 | 0.58 |
| NCI-H322M | 1.21 | 1.26 | – | 1.17 | 1.13 | 0.613 | 0.61 | 0.656 | 0.534 | 0.63 | 0.987 | 0.868 | 0.826 | 0.873 | 0.826 | 0.771 | 0.871 | 0.857 | 0.772 | 0.866 |
| NCI-H460 | 1.65 | 1.58 | 1.96 | 1.17 | 1.3 | 1.41 | 0.872 | 1.36 | 1.17 | 1.09 | 0.0343 | 0.0424 | 0.0365 | 0.0344 | 0.0321 | 0.632 | 0.818 | 0.667 | 0.532 | 0.465 |
| NCI-H520 | 1.24 | 1.14 | 1.18 | 1.04 | 1.12 | 1.06 | – | 1.01 | 0.82 | 0.86 | 0.21 | 0.236 | 0.23 | 0.189 | 0.198 | 0.645 | 1.15 | 1.07 | 0.842 | 0.912 |
| NCI-H596 | 1.07 | 0.861 | 1 | 0.876 | – | 1.17 | 1.29 | 1.13 | – | 1.03 | 0.984 | 1.29 | 1.01 | 0.798 | 0.91 | 0.489 | 0.459 | 0.39 | 0.446 | 0.448 |
| NCI-H647 | 1.42 | 1.36 | 1.14 | 1.12 | 1.17 | – | 1.11 | 1.2 | 1.17 | 1.02 | 0.198 | 0.121 | 0.134 | 0.119 | 0.146 | 1.25 | 1.4 | 1.6 | 1.13 | 1.11 |
| NCI-H727 | 0.324 | 0.398 | 0.4 | 0.412 | 0.417 | 0.626 | 0.637 | 0.84 | 0.769 | 0.801 | 0.319 | – | 0.242 | 0.323 | 0.31 | 0.496 | 0.585 | 0.529 | 0.659 | – |
| NCI-H1395 | 1.07 | – | 1.04 | 0.979 | 0.989 | 0.956 | – | – | 0.988 | 1.19 | 0.79 | 0.697 | 0.653 | 0.737 | 0.676 | 1.03 | – | 1.08 | 1 | 0.999 |
| NCI-H1437 | 1.24 | 1.17 | 1.34 | 1.08 | 1.04 | 0.916 | 0.841 | 0.925 | 0.706 | 0.823 | 1.25 | 1.18 | 1.28 | 1.22 | 1.08 | 1.13 | 1.16 | 1.02 | 0.981 | 0.94 |
| NCI-H1651 | 1.34 | 1.21 | – | 1.05 | 1.13 | 1.02 | 1.06 | 0.994 | 0.692 | 0.87 | 0.926 | 0.829 | 0.947 | 0.749 | 0.83 | 0.994 | 1.19 | 1.18 | 0.894 | 1.01 |
| NCI-H1666 | – | 1.16 | 1.06 | 1.1 | 1.06 | 0.679 | 0.811 | 0.565 | 0.748 | 0.844 | 1.06 | 1.21 | – | 1.18 | 1.03 | 1.04 | 1.05 | 1.09 | 1.34 | 0.887 |
